Test results published in patent US8247211B2, “Glycopeptide antibiotics” (American Cyanamid Company, priority 2001, dated 2012).
≈ marks a conversion by molar mass, not a printed value.

Columns and labels:
[1] = test system: Staphylococcus aureus-SMITH (GC 4543); assay: Acute lethal infection in mice (ED50); format: in vivo; details: female CD-1 mice, intraperitoneal challenge, intravenous dose 30 min. after infection, 7 day survival ratios
Outline: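 Bacteria suspended in Trypticase Soy Broth or hog gastric mucin are injected intraperitoneally into female CD-1 mice at a dose killing untreated animals within 24-48 hr. Thirty minutes later, test agent is administered intravenously. Survival at day 7 is scored.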

Escherichia coli = assay: In vitro antibacterial evaluation: minimum inhibitory concentration (MIC), broth dilution method; format: cell-based; details: Escherichia coli (GC 4560); 18 hours at 35° C.
Outline: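 Test strains, among them recent clinical isolates carrying methicillin, penicillin and/or vancomycin resistance, were inoculated at 5×10^5 CFU/mL. A broth dilution series spanning 64-0.06 μg/mL in Muller-Hinton II […] (NCCLS M7-A2) defined the MIC as the lowest growth-inhibiting concentration.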

Streptococcus sp. = assay: as above; format: cell-based; details: 18 hours at 35° C.
Outline: (§1)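 MIC by broth dilution in Mueller-Hinton II medium following NCCLS M7-A2. Inoculum was 5×10^5 CFU/mL and antibiotic was tested over 64-0.06 μg/mL. Gram-positive panel included clinical isolates resistant to methicillin, penicillin and/or vancomycin.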

Staphylococcus sp. = assay: as above; format: cell-based; details: 18 hours at 35° C.
Outline: as §1

Enterococcus sp. = assay: as above; format: cell-based; details: 18 hours at 35° C.
Outline: as §1

[2] = broth dilution, inoculum 5×10^5 CFU/mL

CC(c1ccccc1)C1NC(=O)CNC(=O)C(CO)NC(=O)C(C(O)C2CNC(=N)N2C2OC(CO)C(O)C(O)C2O)NC(=O)C(C(O)C2CNC(=N)N2)NC(=O)C(Cc2ccc(OC3OC(CO)C(OC4OC(COCc5ccc(OCc6ccccc6)cc5)C(O)C(O)C4O)C(O)C3O)cc2)NC1=O (stereo not drawn) [Example 231, Cyclo[glycyl-β-methylphenylalanyl-O-[4-O-[6-O-[4-(phenylmethoxy)benzyl]hexopyranosyl]-hexopyranosyl)tyrosyl-3-(2-iminoimidazolidin-4-yl)seryl-3-(3-hexopyranosyl-2-iminoimidazolidin-4-yl)serylseryl]]
median effective dose (ED50), Staphylococcus aureus-SMITH (GC 4543) [1]: 0.25 mg/kg | MIC Escherichia coli (GC 4560) (Escherichia coli): 0.5 to 2 µg/mL | MIC Streptococcus agalactiae (GC 4564) (Streptococcus sp.; Streptococcus agalactiae (GC 4564)): <0.06 µg/mL | MIC Streptococcus pneumoniae (ATCC 6301) (Streptococcus sp.; Streptococcus pneumoniae (ATCC 6301)): <0.06 µg/mL | MIC Streptococcus pneumoniae (GC 1894) (Streptococcus sp.; Streptococcus pneumoniae (GC 1894)): <0.06 µg/mL | MIC Streptococcus pneumoniae (GC 4565) (Streptococcus sp.; Streptococcus pneumoniae (GC 4565)): <0.06 µg/mL | MIC Streptococcus pyogenes (GC 4563) (Streptococcus sp.; Streptococcus pyogenes (GC 4563)): <0.06 µg/mL | MIC Streptococcus agalactiae (GC 4564) (Streptococcus sp.; [2]): <0.06 µg/mL | MIC Streptococcus pneumoniae (ATCC 6301) (Streptococcus sp.; [2]): <0.06 µg/mL | MIC Streptococcus pneumoniae (GC 1894) (Streptococcus sp.; [2]): <0.06 µg/mL | MIC Streptococcus pneumoniae (GC 4565) (Streptococcus sp.; [2]): <0.06 µg/mL | MIC Streptococcus pyogenes (GC 4563) (Streptococcus sp.; [2]): <0.06 µg/mL | MIC Coagulase Negative Staphylococcus (GC 4547) (Staphylococcus sp.; Coagulase Negative Staphylococcus (GC 4547)): 1 to 2 µg/mL | MIC Coagulase Negative Staphylococcus (GC 4548) (Staphylococcus sp.; Coagulase Negative Staphylococcus (GC 4548)): 0.5 to 1 µg/mL | MIC Coagulase Negative Staphylococcus (GC 4551) (Staphylococcus sp.; Coagulase Negative Staphylococcus (GC 4551)): 1 µg/mL (≈ 0.67 µM) | MIC Coagulase Negative Staphylococcus (GC 6257) (Staphylococcus sp.; Coagulase Negative Staphylococcus (GC 6257)): 0.5 to 1 µg/mL | MIC Staphylococcus aureus (ATCC 29213) (Staphylococcus sp.; Staphylococcus aureus (ATCC 29213)): 1 to 4 µg/mL | MIC Staphylococcus aureus (GC 1131) (Staphylococcus sp.; Staphylococcus aureus (GC 1131)): 2 to 4 µg/mL | MIC Staphylococcus aureus (GC 3051) (Staphylococcus sp.; Staphylococcus aureus (GC 3051)): 1 to 2 µg/mL | MIC Staphylococcus aureus (GC 3053) (Staphylococcus sp.; Staphylococcus aureus (GC 3053)): 1 to 2 µg/mL | MIC Staphylococcus aureus (GC 4541) (Staphylococcus sp.; Staphylococcus aureus (GC 4541)): 1 to 4 µg/mL | MIC Staphylococcus aureus (GC 4542) (Staphylococcus sp.; Staphylococcus aureus (GC 4542)): 2 to 4 µg/mL | MIC Staphylococcus aureus (GC 4544) (Staphylococcus sp.; Staphylococcus aureus (GC 4544)): 2 to 4 µg/mL | MIC Staphylococcus aureus (GC 4545) (Staphylococcus sp.; Staphylococcus aureus (GC 4545)): 1 to 4 µg/mL | MIC Staphylococcus aureus-SMITH (GC 4543) (Staphylococcus sp.; Staphylococcus aureus-SMITH (GC 4543)): 2 µg/mL (≈ 1.34 µM) | MIC Staphylococcus haemolyticus (GC 4546) (Staphylococcus sp.; Staphylococcus haemolyticus (GC 4546)): 1 to 4 µg/mL | MIC Enterococcus avium (GC 4558) (Enterococcus sp.; Enterococcus avium (GC 4558)): 2 to 4 µg/mL | MIC Enterococcus faecalis (ATCC 29212) (Enterococcus sp.; Enterococcus faecalis (ATCC 29212)): 4 µg/mL (≈ 2.68 µM) | MIC Enterococcus faecalis (GC 2242) (Enterococcus sp.; Enterococcus faecalis (GC 2242)): 4 µg/mL (≈ 2.68 µM) | MIC Enterococcus faecalis (GC 2691) (Enterococcus sp.; Enterococcus faecalis (GC 2691)): 2 to 4 µg/mL | MIC Enterococcus faecalis (GC 3059) (Enterococcus sp.; Enterococcus faecalis (GC 3059)): 2 to 4 µg/mL | MIC Enterococcus faecalis (GC 4552) (Enterococcus sp.; Enterococcus faecalis (GC 4552)): 4 µg/mL (≈ 2.68 µM) | MIC Enterococcus faecalis (GC 4553) (Enterococcus sp.; Enterococcus faecalis (GC 4553)): 4 µg/mL (≈ 2.68 µM) | MIC Enterococcus faecalis (GC 4554) (Enterococcus sp.; Enterococcus faecalis (GC 4554)): 4 µg/mL (≈ 2.68 µM) | MIC Enterococcus faecalis (GC 6189) (Enterococcus sp.; Enterococcus faecalis (GC 6189)): 2 to 4 µg/mL | MIC Enterococcus faecium (GC 2243) (Enterococcus sp.; Enterococcus faecium (GC 2243)): 4 µg/mL (≈ 2.68 µM) | MIC Enterococcus faecium (GC 4556) (Enterococcus sp.; Enterococcus faecium (GC 4556)): 4 µg/mL (≈ 2.68 µM) | MIC Enterococcus faecium (GC 4557) (Enterococcus sp.; Enterococcus faecium (GC 4557)): 1 to 2 µg/mL | MIC Enterococcus avium (GC 4558) (Enterococcus sp.; [2]): 2 to 4 µg/mL | MIC Enterococcus faecalis (ATCC 29212) (Enterococcus sp.; [2]): 4 µg/mL (≈ 2.68 µM) | MIC Enterococcus faecalis (GC 2242) (Enterococcus sp.; [2]): 4 µg/mL (≈ 2.68 µM) | MIC Enterococcus faecalis (GC 2691) (Enterococcus sp.; [2]): 2 to 4 µg/mL | MIC Enterococcus faecalis (GC 3059) (Enterococcus sp.; [2]): 2 to 4 µg/mL | MIC Enterococcus faecalis (GC 4552) (Enterococcus sp.; [2]): 4 µg/mL (≈ 2.68 µM) | MIC Enterococcus faecalis (GC 4553) (Enterococcus sp.; [2]): 4 µg/mL (≈ 2.68 µM) | MIC Enterococcus faecalis (GC 4554) (Enterococcus sp.; [2]): 4 µg/mL (≈ 2.68 µM) | MIC Enterococcus faecalis (GC 6189) (Enterococcus sp.; [2]): 2 to 4 µg/mL | MIC Enterococcus faecium (GC 2243) (Enterococcus sp.; [2]): 4 µg/mL (≈ 2.68 µM) | MIC Enterococcus faecium (GC 4556) (Enterococcus sp.; [2]): 4 µg/mL (≈ 2.68 µM) | MIC Enterococcus faecium (GC 4557) (Enterococcus sp.; [2]): 1 to 2 µg/mL
